Assay results from ChEMBL document CHEMBL1201862, “PubChem BioAssay data set” (2004).
Activity calls are given as the source filed them.

What was measured:
[1] = biological target: DNA dC->dU-editing enzyme APOBEC-3G (Homo sapiens, UniProt Q9HC16); assay: Dose Response confirmation of small molecule APOBEC3G DNA Deaminase Inhibitors via a fluorescence-based single-stranded DNA deaminase assay. [Related pubchem assays (depositor defined):AID493012, AID493028]; format: functional
[2] = NIH-3T3 fibroblast cytotoxicity, dose response, cytotoxicity control, cell-based, fluorescence, Alamar Blue, secondary assay (AID 2327); format: functional;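 further: NIH-3T3 mouse fibroblasts cultured with fluconazole at 8 µg/mL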
[3] = fluconazole-exposed Candida albicans growth modulators – fluorescence, retest, confirmation (AID 2467); format: functional, cell-based
[4] = test system: H9c2; assay: cells; format: functional, cell-based; conditions: Rattus norvegicus, H9c2, Myocardium;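 further: confirmatory concentration-response retest of ultra-high-throughput screening hits for modulation of myocardial damage; cell death induced by hydrogen peroxide oxidative stress; compound pretreatment for 60 min then peroxide exposure for 2 h; potency is for protecting the cells against peroxide damage rather than for killing them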
[5] = blockers of HIV-1 envelope-mediated cell-cell fusion – cherry-pick, dose response (AID 652057); format: functional, cell-based
[6] = off-target signal loss in HeLa-CEM21 co-culture – HeLa F-luc CTL cells, cherry-picked, counter-screen for HIV-1 Env fusion inhibitor project, dose response (AID 652040); format: functional, cell-based;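 further: potency for signal decrease marking cytotoxic or nonspecific inhibition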
[7] = HIV-1 AD8 envelope cell-cell fusion blockers – cherry-pick, dose response (AID 652062); format: functional, cell-based;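 further: luciferase signal from cell-cell fusion driven by HIV-1 clade B AD8 Env; potency is for inhibitors of fusion seen as a drop in luminescence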
[8] = cells; format: functional, cell-based
[9] = cells; format: functional, cell-based; remark: listed apart in the source
[10] = biological target: Nonstructural protein 1 (Influenza A virus, UniProt Q194T2); format: functional, Influenza A virus (A/California/07/2009(H1N1))
Nonstructural protein 1, sequence (Q194T2 whole entry): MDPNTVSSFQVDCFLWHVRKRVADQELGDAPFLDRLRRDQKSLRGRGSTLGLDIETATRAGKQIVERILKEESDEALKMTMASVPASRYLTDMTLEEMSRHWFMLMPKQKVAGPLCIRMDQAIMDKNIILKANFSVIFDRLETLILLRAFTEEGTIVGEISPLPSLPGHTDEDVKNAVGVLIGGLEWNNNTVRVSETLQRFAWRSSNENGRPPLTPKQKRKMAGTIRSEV

[11] = biological target: Heat shock protein HSP 90-alpha (Homo sapiens, UniProt P07900); format: functional, organism-based
[12] = biological target: T1, Ubiquitin-conjugating enzyme E2 N (Homo sapiens, UniProt P61088); format: functional;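 further: Dose-response confirmation in a TR-FRET assay detecting UBC13-driven polyubiquitin chain formation, inhibition measured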
T1 sequence (P61088 whole entry): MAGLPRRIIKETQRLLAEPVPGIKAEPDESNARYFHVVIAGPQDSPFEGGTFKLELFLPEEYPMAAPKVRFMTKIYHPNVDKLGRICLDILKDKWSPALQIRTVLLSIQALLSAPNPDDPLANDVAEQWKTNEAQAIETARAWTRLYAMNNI

[13] = blockers of HIV-1 ZM109 envelope-driven cell-cell fusion – HeLa effector, CEM target cells, luciferase, cherry-pick, dose response (AID 652058); format: functional, cell-based;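 further: luciferase signal from HIV-1 Env mediated cell-cell fusion of effector and target cells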
[14] = P. falciparum Dd2 growth inhibitors, dose response, SYBR Green, cherry-picked samples (AID 1159567); format: functional, cell-based
[15] = Trypanosoma cruzi growth suppression in host cells – NIH3T3 host cells, beta-gal luminescence, confirmation (AID 2044); format: functional, cell-based;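 further: intracellular parasites grown in NIH/3T3 mouse fibroblasts as host cells; luminescent beta-galactosidase reporter signal from transgenic T. cruzi replicating inside host cells; inhibitors lower the luminescence signal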
[16] = NIH3T3 cell viability loss – ATP luminescence, mouse fibroblasts, counter-screen, dose response (AID 2010); format: functional, cell-based;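 further: cells exposed to compound for about 90 hours before reading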
[17] = test system: INS1; assay: INS-1E survival protection against cytokine death – cell-based, luminescence, retest, dose response (AID 449756); format: functional; conditions: Rattus norvegicus;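 further: cell death triggered by IL-1 beta plus TNF-alpha plus IFN-gamma mixture; protective hits raise ATP signal compared with cytokine alone wells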

DNA dC->dU-editing enzyme APOBEC-3G, sequence (Q9HC16 whole entry): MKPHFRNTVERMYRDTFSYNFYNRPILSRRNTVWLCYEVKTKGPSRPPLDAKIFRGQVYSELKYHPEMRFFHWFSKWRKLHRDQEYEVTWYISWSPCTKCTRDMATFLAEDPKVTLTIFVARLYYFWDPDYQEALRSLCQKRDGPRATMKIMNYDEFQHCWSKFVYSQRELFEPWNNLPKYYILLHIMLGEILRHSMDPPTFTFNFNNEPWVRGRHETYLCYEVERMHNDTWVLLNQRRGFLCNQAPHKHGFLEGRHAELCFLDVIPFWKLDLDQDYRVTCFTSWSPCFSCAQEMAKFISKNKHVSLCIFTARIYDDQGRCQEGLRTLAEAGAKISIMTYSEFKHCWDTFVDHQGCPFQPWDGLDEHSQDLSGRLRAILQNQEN

COc1ccc(CC(=S)N2CCOCC2)cc1
IC50 [1]: 46.1 µM (active)

Cc1ccc(N2CCN(C3=NC(=O)/C(=C\c4c[nH]nc4-c4ccccc4)S3)CC2)cc1
EC50 [2]: > 150 µM (inactive)
EC50 [3]: 8.34 µM (active)

CN(C)Cc1ccc(-c2nc3cccc4c3n2CCNC4=O)cc1
IC50 [4]: > 79 µM (inactive)

Cc1cc2c3c(c1)C1(SCC(=O)N1c1ccc(F)cc1)C(=O)N3C(C)(C)CC2C (stereo not given)
AC50 [5]: 3.4 µM (active)
AC50 [6]: > 32 µM (inactive)
AC50 [7]: 9.73 µM (active)

CCCCN=C(S)Nc1ccc2c[nH]nc2c1
EC50 [8]: > 350 µM (not active)
EC50 [9]: > 350 µM (not active)

CC(=NNC(=S)N1CC2CCC(CC2)C1)c1cnccn1
IC50 [10]: 3.16 µM (active)
AC50 [11]: 4.43 µM (active)

COC(=O)c1ccccc1NC(=O)c1nc2nc(C)cc(C)n2n1
IC50 [4]: > 79 µM (inactive)

CC(C)Cn1c(/C=N/Nc2nc3ccccc3[nH]2)nc2ccccc21
EC50 [8]: 52.5 µM (active)
EC50 [9]: > 350 µM (not active)

CC(=O)N1CCN(C(=O)CCc2nc(O)c3ccccc3n2)CC1
IC50 [4]: > 79 µM (inactive)

COc1ccc2c(c1)OC[C@H]1[C@H]2N2C(=O)c3cc(Br)ccc3NC(=O)[C@@]2(C)[C@H]1c1ccccc1
AC50 [11]: 0.837 µM (active)

O=S1(=O)CC(O)C(N=Nc2c(O)n(Cc3ccccc3)c3ccccc23)C1 (stereo not given)
IC50 [12]: > 20 µM (inactive)

COc1ccccc1CN1C(=O)CN(C2CCCCCC2)C(=O)C1c1ccc(F)cc1 (stereo not given)
AC50 [5]: 30.9 µM (active)
AC50 [13]: 20.9 µM (active)
AC50 [6]: 60.9 µM (active)

C#CCOCCOCCOCCNc1nc(N2CCN(C(=O)[C@H](CO)n3cc([C@@H](N)C(C)C)nn3)CC2)nc(N2CCN(C(=O)[C@H](CCC(=O)O)n3cc([C@@H](N)CCCCN)nn3)CC2)n1
IC50 [12]: > 20 µM (inactive)

CCCN1C[C@@H](C)[C@H](OC)CN(C)C(=O)c2ccc(NC(=O)c3cccc(F)c3)cc2OC[C@H]1C
AC50 [14]: 5.34 µM (active)

CC(=O)c1ccc(NC(=O)Nc2cccc3ccccc23)cc1
EC50 [2]: 19.1 µM (inconclusive)
EC50 [3]: > 38 µM (not active)

C/C(=N\NC(=O)c1cc(-c2cccnc2)nc2ccccc12)c1ccccc1O
EC50 [8]: 16.8 µM (active)
EC50 [15]: 834 nM (active)
EC50 [9]: > 350 µM (not active)
EC50 [16]: 2.18 µM (active)
AC50 [17]: 971 nM (active)

COc1cc(-c2nnc(COC(=O)c3cc(C)nc4ccc(C)cc34)o2)cc(OC)c1OC
IC50 [4]: 12.3 µM (active)
